Data from ChEMBL document CHEMBL1137417, “Design, synthesis, and biological evaluation of hydroquinone derivatives of 17-amino-17-demethoxygeldanamycin as potent, water-soluble inhibitors of Hsp90” (J Med Chem, 2006).

Tests used:
Endoplasmin = Endoplasmin (Canis lupus familiaris, UniProt P41148); test: Inhibition of BODIPY-AG binding to dog Grp94
Heat shock protein HSP90 [1] = target: T1, Heat shock protein HSP90 (Homo sapiens, UniProt P07900+P08238); test: Upregulation of Hsp70 in SKBR3 cells; type: functional, cell-based; details: sk-br-3
Heat shock protein HSP90 [2] = target: T1, Heat shock protein HSP90; test: Inhibition of BODIPY-AG binding to human HSP90; type: protein assay
SK-BR-3 = test: Inhibition of human SKBR3 cell growth; type: functional
SK-OV-3 = test: Inhibition of human SKOV3 cell growth; type: functional
Heat shock protein HSP90 [3] = target: T1, Heat shock protein HSP90; test: Degradation of Her2 in SKOV3 cells; type: functional, cell-based; details: sk-ov-3
Heat shock protein HSP90 [4] = target: T1, Heat shock protein HSP90; test: Upregulation of Hsp70 in SKOV3 cells; type: functional, cell-based; details: sk-ov-3
Heat shock protein HSP90 [5] = target: T1, Heat shock protein HSP90; test: Degradation of Her2 in SKBR3 cells; type: functional, cell-based; details: sk-br-3

Sequence of Endoplasmin (P41148 whole entry): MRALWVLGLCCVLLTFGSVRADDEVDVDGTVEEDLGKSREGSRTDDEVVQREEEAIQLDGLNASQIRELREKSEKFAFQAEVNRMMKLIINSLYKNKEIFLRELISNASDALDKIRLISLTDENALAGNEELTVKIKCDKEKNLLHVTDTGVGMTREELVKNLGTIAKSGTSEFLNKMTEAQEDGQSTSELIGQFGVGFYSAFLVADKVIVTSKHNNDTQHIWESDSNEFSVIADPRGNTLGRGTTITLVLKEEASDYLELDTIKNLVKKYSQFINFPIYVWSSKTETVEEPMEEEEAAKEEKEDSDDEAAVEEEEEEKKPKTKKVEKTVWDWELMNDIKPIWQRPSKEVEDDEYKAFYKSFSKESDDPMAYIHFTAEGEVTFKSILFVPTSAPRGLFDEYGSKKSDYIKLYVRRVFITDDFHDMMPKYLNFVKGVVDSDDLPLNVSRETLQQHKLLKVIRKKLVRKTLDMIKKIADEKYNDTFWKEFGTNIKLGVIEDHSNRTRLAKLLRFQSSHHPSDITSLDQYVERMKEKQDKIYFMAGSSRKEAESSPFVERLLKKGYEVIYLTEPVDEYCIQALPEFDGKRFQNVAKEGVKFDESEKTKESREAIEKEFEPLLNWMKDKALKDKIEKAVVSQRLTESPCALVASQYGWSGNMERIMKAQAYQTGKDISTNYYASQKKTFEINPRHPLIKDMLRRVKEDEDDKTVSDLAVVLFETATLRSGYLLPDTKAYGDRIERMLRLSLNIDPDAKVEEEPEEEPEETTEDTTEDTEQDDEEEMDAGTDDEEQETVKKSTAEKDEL

Compound	EC50 (Endoplasmin) [µM]	EC50 (Heat shock protein HSP90 [1]) [µM]	EC50 (Heat shock protein HSP90 [2]) [µM]	GI50 (SK-BR-3) [µM]	GI50 (SK-OV-3) [µM]	EC50 (Heat shock protein HSP90 [3]) [µM]	EC50 (Heat shock protein HSP90 [4]) [µM]	EC50 (Heat shock protein HSP90 [5]) [µM]
CO[C@H]1/C=C\C=C(/C)C(=O)Nc2cc(O)c(N)c(c2O)C[C@@H](C)C[C@H](OC)[C@H](O)[C@@H](C)/C=C(\C)[C@@H]1OC(N)=O.Cl	0.048	0.058	0.034	0.05	0.017	0.031	0.01	–
CO[C@H]1/C=C\C=C(/C)C(=O)Nc2cc(O)c(NC[C@H](O)CO)c(c2O)C[C@@H](C)C[C@H](OC)[C@H](O)[C@@H](C)/C=C(\C)[C@@H]1OC(N)=O.Cl	0.131	0.102	0.091	0.832	1.11	0.756	> 10	0.321
CO[C@H]1/C=C\C=C(/C)C(=O)NC2=CC(=O)C(NC[C@H](O)CO)=C(C[C@@H](C)C[C@H](OC)[C@H](O)[C@@H](C)/C=C(\C)[C@@H]1OC(N)=O)C2=O	0.072	0.14	0.066	0.724	2.02	4.585	0.853	0.141
CO[C@H]1/C=C\C=C(/C)C(=O)NC2=CC(=O)C(N)=C(C[C@@H](C)C[C@H](OC)[C@H](O)[C@@H](C)/C=C(\C)[C@@H]1OC(N)=O)C2=O	0.048	0.017	0.034	0.025	0.014	0.053	0.006	0.008
C=CCNc1c(O)cc2nc3oc2c1C[C@@H](C)C[C@H](OC)[C@H](O)[C@@H](C)/C=C(\C)[C@H](OC(N)=O)[C@@H](OC)/C=C\C=C\3C.Cl	> 10	–	> 10	1.78	0.371	0.435	3.229	0.585
C=CCn1c(=O)oc2cc3c(O)c(c21)C[C@@H](C)C[C@H](OC)[C@H](O)[C@@H](C)/C=C(\C)[C@H](OC(N)=O)[C@@H](OC)/C=C\C=C(/C)C(=O)N3	–	0.384	0.603	0.583	1.24	0.742	2.283	1.046
C=CCN1C(=O)COc2cc3c(O)c(c21)C[C@@H](C)C[C@H](OC)[C@H](O)[C@@H](C)/C=C(\C)[C@H](OC(N)=O)[C@@H](OC)/C=C\C=C(/C)C(=O)N3	–	0.311	0.541	0.739	0.726	0.415	1.005	0.19
Nc1ncnc2c1ncn2[C@@H]1O[C@H](COP(=O)(O)OP(=O)(O)O)[C@@H](O)[C@H]1O [ADENOSINE DIPHOSPHATE]	21	–	87	–	–	–	–	–
Nc1ncnc2c1ncn2[C@@H]1O[C@H](COP(=O)(O)OP(=O)(O)OP(=O)(O)O)[C@@H](O)[C@H]1O [ADENOSINE TRIPHOSPHATE]	19	–	1500	–	–	–	–	–
CO[C@H]1/C=C\C=C(/C)C(=O)NC2=CC(=O)C(NCCN(C)C)=C(C[C@@H](C)C[C@H](OC)[C@H](O)[C@@H](C)/C=C(\C)[C@@H]1OC(N)=O)C2=O [ALVESPIMYCIN]	0.065	–	–	0.029	0.032	–	–	–
C=CCNc1c(O)cc2c(O)c1C[C@@H](C)C[C@H](OC)[C@H](O)[C@@H](C)/C=C(\C)[C@H](OC(N)=O)[C@@H](OC)/C=C\C=C(/C)C(=O)N2.Cl [RETASPIMYCIN HYDROCHLORIDE]	0.119	–	0.063	0.022	0.052	0.027	0.016	0.02
C=CCNC1=C2C[C@@H](C)C[C@H](OC)[C@H](O)[C@@H](C)/C=C(\C)[C@H](OC(N)=O)[C@@H](OC)/C=C\C=C(/C)C(=O)NC(=CC1=O)C2=O [TANESPIMYCIN]	0.124	–	–	0.017	0.015	–	–	–
